The record followed here is patent US8138168B1 (Takeda Pharmaceutical Company Limited, priority 2007, dated 2012).

The test deals with T1, Recombinant human renin (Homo sapiens, UniProt P00797).
T1 construct: isolate the active form (residues 67-406); made in house; host or cells: FreeStyle 293-F cells (transient expression of pcDNA3.1(+)/hREN)
T1 sequence (P00797 67-406): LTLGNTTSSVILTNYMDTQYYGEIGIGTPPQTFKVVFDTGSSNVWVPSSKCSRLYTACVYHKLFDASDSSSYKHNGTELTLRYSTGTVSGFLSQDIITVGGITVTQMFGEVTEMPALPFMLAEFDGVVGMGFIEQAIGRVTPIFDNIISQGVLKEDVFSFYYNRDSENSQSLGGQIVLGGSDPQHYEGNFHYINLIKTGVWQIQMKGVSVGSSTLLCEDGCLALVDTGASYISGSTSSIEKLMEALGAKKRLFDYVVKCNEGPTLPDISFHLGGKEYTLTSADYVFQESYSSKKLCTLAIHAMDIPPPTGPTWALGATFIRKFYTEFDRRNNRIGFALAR
Kind of test: In vitro enzymatic activity assay of renin inhibitors (fluorogenic peptide substrate). It is filed as biochemical. To be noted: read-out: IC50 of Exemplified Compounds Against Renin. An outline of the steps: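 Recombinant human renin (3 nM final) pre-incubated 10 min at 37 °C with compounds in pH 7.4 Hepes/EDTA/DTT/0.1 mg/mL BSA/Brij35 buffer (optionally plus 2% BSA), 5% DMSO final; fluorogenic QXL520/HiLyteFluo488 peptide substrate added.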
For `COCCCn1c([C@@H]2CCCN(C(=O)[C@@H]3CN(S(=O)(=O)c4cccc(-c5noc(C)n5)c4)C[C@H]3N)C2)nc2ccccc21` [Compound 409, ((3R,4S)-4-amino-1-(3-(5-methyl-1,2,4-oxadiazol-3-yl)phenylsulfonyl)pyrrolidin-3-yl)((R)-3-(1-(3-methoxypropyl)-1H-benzo[d]imidazol-2-yl)piperidin-1-yl)methanone], the IC50 is more than 1000 nM.
Consider `COCCCn1c([C@@H]2CCCN(C(=O)[C@@H]3CN(S(=O)(=O)c4cc(C)ccc4OC)C[C@H]3N)C2)nc2ccccc21` [Compound 410, ((3R,4S)-4-amino-1-(2-methoxy-5-methylphenylsulfonyl)pyrrolidin-3-yl)((R)-3-(1-(3-methoxypropyl)-1H-benzo[d]imidazol-2-yl)piperidin-1-yl)methanone], for which the IC50 is more than 1000 nM.
`COCCCn1c([C@@H]2CCCN(C(=O)[C@@H]3CN(S(=O)(=O)c4ccc([N+](=O)[O-])cc4OC)C[C@H]3N)C2)nc2ccccc21` [Compound 411, ((3R,4S)-4-amino-1-(2-methoxy-4-nitrophenylsulfonyl)pyrrolidin-3-yl)((R)-3-(1-(3-methoxypropyl)-1H-benzo[d]imidazol-2-yl)piperidin-1-yl)methanone]: the IC50 is more than 1000 nM.
`COCCCn1c([C@@H]2CCCN(C(=O)[C@@H]3CN(S(=O)(=O)c4cc(Cl)ccc4OC)C[C@H]3N)C2)nc2ccccc21` [Compound 412, ((3R,4S)-4-amino-1-(5-chloro-2-methoxyphenylsulfonyl)pyrrolidin-3-yl)((R)-3-(1-(3-methoxypropyl)-1H-benzo[d]imidazol-2-yl)piperidin-1-yl)methanone]: the IC50 is more than 1000 nM.
To `COCCCn1c([C@@H]2CCCN(C(=O)[C@@H]3CN(S(=O)(=O)c4cc(OC)ccc4OC)C[C@H]3N)C2)nc2ccccc21` [Compound 413, ((3R,4S)-4-amino-1-(2,5-dimethoxyphenylsulfonyl)pyrrolidin-3-yl)((R)-3-(1-(3-methoxypropyl)-1H-benzo[d]imidazol-2-yl)piperidin-1-yl)methanone] belongs more than 1000 nM.
To `COCCCn1c([C@@H]2CCCN(C(=O)[C@@H]3CN(C(=O)c4c(Cl)cccc4Cl)C[C@H]3N)C2)nc2ccccc21` [Compound 414, ((3R,4S)-4-amino-1-(2,6-dichlorobenzoyl)pyrrolidin-3-yl)((R)-3-(1-(3-methoxypropyl)-1H-benzo[d]imidazol-2-yl)piperidin-1-yl)methanone] belongs more than 1000 nM.
To `COCCCn1c([C@@H]2CCCN(C(=O)[C@@H]3CN(C(=O)Nc4ccc(OC)cc4)C[C@H]3N)C2)nc2ccccc21` [Compound 415, (3S,4R)-3-amino-N-(4-methoxyphenyl)-4-((R)-3-(1-(3-methoxypropyl)-1H-benzo[d]imidazol-2-yl)piperidine-1-carbonyl)pyrrolidine-1-carboxamide] belongs more than 1000 nM; to `COCCCn1c([C@@H]2CCCN(C(=O)[C@@H]3CN(C(=O)c4ccc(Cl)cc4)C[C@H]3N)C2)nc2ccccc21` [Compound 416, ((3R,4S)-4-amino-1-(4-chlorobenzoyl)pyrrolidin-3-yl)((R)-3-(1-(3-methoxypropyl)-1H-benzo[d]imidazol-2-yl)piperidin-1-yl)methanone], more than 1000 nM; to `COCCCn1c([C@@H]2CCCN(C(=O)[C@@H]3CN(C(=O)N4CCCC4)C[C@H]3N)C2)nc2ccccc21` [Compound 417, ((3R,4S)-4-amino-1-(pyrrolidine-1-carbonyl)pyrrolidin-3-yl)((R)-3-(1-(3-methoxypropyl)-1H-benzo[d]imidazol-2-yl)piperidin-1-yl)methanone], more than 1000 nM.
In the case of `CCCSc1ncccc1C(=O)N1C[C@@H](N)[C@H](C(=O)N2CCC[C@@H](c3nc4ccccc4n3CCCOC)C2)C1` [Compound 418], the IC50 was more than 1000 nM.
On to `COCCCn1c([C@@H]2CCCN(C(=O)[C@@H]3CN(S(=O)(=O)c4cccc(OC(F)F)c4)C[C@H]3N)C2)nc2ccccc21` [Compound 419, ((3R,4S)-4-amino-1-(3-(difluoromethoxy)phenylsulfonyl)pyrrolidin-3-yl)((R)-3-(1-(3-methoxypropyl)-1H-benzo[d]imidazol-2-yl)piperidin-1-yl)methanone], for which the IC50 is more than 1000 nM.
Then `COCCCn1c([C@@H]2CCCN(C(=O)[C@@H]3CN(C(=O)c4ccco4)C[C@H]3N)C2)nc2ccccc21` [Compound 420, ((3R,4S)-4-amino-1-(furan-2-carbonyl)pyrrolidin-3-yl)((R)-3-(1-(3-methoxypropyl)-1H-benzo[d]imidazol-2-yl)piperidin-1-yl)methanone], with more than 1000 nM.
To `COCCCn1c([C@@H]2CCCN(C(=O)[C@@H]3CN(C(=O)c4cccc(OC)c4)C[C@H]3N)C2)nc2ccccc21` [Compound 421, ((3R,4S)-4-amino-1-(3-methoxybenzoyl)pyrrolidin-3-yl)((R)-3-(1-(3-methoxypropyl)-1H-benzo[d]imidazol-2-yl)piperidin-1-yl)methanone] belongs more than 1000 nM; to `COCCCn1c([C@@H]2CCCN(C(=O)[C@@H]3CN(C(=O)c4ccc(C(=O)OC)cc4)C[C@H]3N)C2)nc2ccccc21` [Compound 422, methyl 4-((3S,4R)-3-amino-4-((R)-3-(1-(3-methoxypropyl)-1H-benzo[d]imidazol-2-yl)piperidine-1-carbonyl)pyrrolidine-1-carbonyl)benzoate], more than 1000 nM; to `COCCCn1c([C@@H]2CCCN(C(=O)[C@@H]3CN(C(=O)N4CCOCC4)C[C@H]3N)C2)nc2ccccc21` [Compound 423, ((3R,4S)-4-amino-1-(morpholine-4-carbonyl)pyrrolidin-3-yl)((R)-3-(1-(3-methoxypropyl)-1H-benzo[d]imidazol-2-yl)piperidin-1-yl)methanone], more than 1000 nM.
Then `COCCCn1c([C@@H]2CCCN(C(=O)[C@@H]3CN(C(=O)c4ccccc4C(=O)OC)C[C@H]3N)C2)nc2ccccc21` [Compound 424, methyl 2-((3S,4R)-3-amino-4-((R)-3-(1-(3-methoxypropyl)-1H-benzo[d]imidazol-2-yl)piperidine-1-carbonyl)pyrrolidine-1-carbonyl)benzoate], with more than 1000 nM; and `COCCCn1c([C@@H]2CCCN(C(=O)[C@@H]3CN(S(=O)(=O)c4c(F)cccc4F)C[C@H]3N)C2)nc2ccccc21` [Compound 426, ((3R,4S)-4-amino-1-(2,6-difluorophenylsulfonyl)pyrrolidin-3-yl)((R)-3-(1-(3-methoxypropyl)-1H-benzo[d]imidazol-2-yl)piperidin-1-yl)methanone], with 100 to 1000 nM.
For `COCCCn1c([C@@H]2CCCN(C(=O)[C@@H]3CN(S(=O)(=O)c4ccccc4C#N)C[C@H]3N)C2)nc2ccccc21` [Compound 427, 2-((3S,4R)-3-amino-4-((R)-3-(1-(3-methoxypropyl)-1H-benzo[d]imidazol-2-yl)piperidine-1-carbonyl)pyrrolidin-1-ylsulfonyl)benzonitrile], the half-inhibitory concentration (IC50) is more than 1000 nM.
As for `COCCCn1c([C@@H]2CCCN(C(=O)[C@@H]3CN(S(=O)(=O)c4cccc(F)c4)C[C@H]3N)C2)nc2ccccc21` [Compound 428, ((3R,4S)-4-amino-1-(3-fluorophenylsulfonyl)pyrrolidin-3-yl)((R)-3-(1-(3-methoxypropyl)-1H-benzo[d]imidazol-2-yl)piperidin-1-yl)methanone], the IC50 was 100 to 1000 nM.
